We go through 9 molecules from paper PMC11252000, “MFSD1 with its accessory subunit GLMP functions as a general dipeptide uniporter in lysosomes” (Nature Cell Biology, 2024).

Residue numbers refer to the chain shown, from its start. Names may count otherwise. Where a SMILES comes first, the peptide text is derived from it.

The target of data set [1] is T1, MFSD1–GLMP oocytes (MFSD1L11A/L12A-EmGFP + GLMPY400A-mKate2) (Mus musculus, UniProt Q9DC37, L11A/L12A).
T1 construct: heterodimer at plasma membrane of Xenopus laevis oocytes; lysosomal sorting mutants; EmGFP and mKate2 fusions; with Glycosylated lysosomal membrane protein
T1 sequence (Q9DC37 1-464 L11A/L12A): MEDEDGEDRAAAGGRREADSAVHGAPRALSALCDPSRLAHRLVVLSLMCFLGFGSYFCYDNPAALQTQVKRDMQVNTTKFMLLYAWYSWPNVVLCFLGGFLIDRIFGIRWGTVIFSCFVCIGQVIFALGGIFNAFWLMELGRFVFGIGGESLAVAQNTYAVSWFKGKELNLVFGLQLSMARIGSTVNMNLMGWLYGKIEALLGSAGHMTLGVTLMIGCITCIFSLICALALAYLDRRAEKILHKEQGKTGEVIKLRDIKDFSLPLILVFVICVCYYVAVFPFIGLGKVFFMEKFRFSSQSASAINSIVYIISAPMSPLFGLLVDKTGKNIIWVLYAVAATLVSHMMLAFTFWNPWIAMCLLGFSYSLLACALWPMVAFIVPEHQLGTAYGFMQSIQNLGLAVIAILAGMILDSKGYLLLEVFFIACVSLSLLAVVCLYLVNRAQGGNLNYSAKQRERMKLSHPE
T1 sequence (Q9JHJ3 36-404 Y400A partner): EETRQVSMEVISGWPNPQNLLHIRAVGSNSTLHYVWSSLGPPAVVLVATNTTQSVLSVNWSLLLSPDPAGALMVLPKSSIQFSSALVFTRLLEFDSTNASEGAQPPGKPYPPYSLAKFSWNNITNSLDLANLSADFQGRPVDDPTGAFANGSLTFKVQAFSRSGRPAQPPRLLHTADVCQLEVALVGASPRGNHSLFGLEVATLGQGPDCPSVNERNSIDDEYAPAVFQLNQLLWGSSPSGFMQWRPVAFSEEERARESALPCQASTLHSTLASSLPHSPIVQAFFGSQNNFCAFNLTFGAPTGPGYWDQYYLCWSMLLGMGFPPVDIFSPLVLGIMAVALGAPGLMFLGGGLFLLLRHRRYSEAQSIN
As to the kind of experiment: TEVC competition with Lys–Ala current in oocytes. Format: cell-based.

The target in data set [2] is T2, MFSD1 (MFSD1WT, mmMFSD1, MFSD1-strep) (Mus musculus, UniProt Q9DC37, Y56A).
T2 construct: full length; N-terminal Twin-Strep-tag + HRV 3C site; Expi293F; purified in DDM/CHS; liposomes POPE:POPG:CHS for transport
T2 sequence (Q9DC37 1-464 Y56A): T1 sequence (Q9DC37 1-464 L11A/L12A) with A11L, A12L, Y56A
Nature of the data set: proteoliposome uptake, pyranine fluorescence. In kind it is biochemical. To be noted: pH 6.8, 22 °C, valinomycin; 2.5 mM peptide.

The target of data set [3] is T3, GLMP–MFSD1 (GLMP–MFSD1-strep fusion) (Mus musculus, UniProt Q9DC37).
T3 construct: single-chain fusion GLMP-GSAGSAAGSGEF-MFSD1; C-terminal 3C site + Twin-Strep-tag; Expi293F; DDM/CHS; with Glycosylated lysosomal membrane protein
T3 sequence (Q9DC37 1-464): T1 sequence (Q9DC37 1-464 L11A/L12A) with A11L, A12L
T3 sequence (Q9JHJ3 36-404 partner): T1 sequence (Q9JHJ3 36-404 Y400A partner) with A365Y
As to the kind of experiment: cryo-EM, […] Å map with extra density. In kind it is binding. To be noted: 20 mM His–Ala; central cavity, outward-open; peptide not unambiguously placed; model 8R8Q (called apo) built in this map.

Data set [4] addresses T4, MFSD1 (MFSD1WT, mmMFSD1, MFSD1-strep) (Mus musculus, UniProt Q9DC37).
T4 construct: full length; N-terminal Twin-Strep-tag + HRV 3C site; Expi293F; purified in DDM/CHS; liposomes POPE:POPG:CHS for transport
T4 sequence (Q9DC37 1-464): T1 sequence (Q9DC37 1-464 L11A/L12A) with A11L, A12L
Nature of the data set: nanoDSF thermal shift titration. In kind it is binding. In general terms: In DSF a fluorescence change marks the thermal transition of the protein.

In data set [5] the target is T4, MFSD1 (MFSD1WT, mmMFSD1, MFSD1-strep). Nature of the data set: nanoDSF thermal shift. To be noted: 5 mM ligand, pH 7.5, DDM/CHS. Format: binding.
Data set [6] addresses MFSD1-strep (mouse major facilitator superfamily domain containing 1 protein with N-terminal Twin-Strep-tag) (mouse) (UniProt Q9DC37).
Substrate in data set [7]: C[C@H](NC(=O)[C@@H](N)CCCCN)C(=O)O
Nature of the data set: TEVC current in Xenopus oocytes. Conditions: pH 5.0, −40 mV, room temperature (20 °C), hydrobromide salt. In kind it is cell-based, Mus musculus.

Substrate in data set [8]: CC(C)C[C@H](N)C(=O)N[C@@H](C)C(=O)O
As to the kind of experiment: isotope tracer uptake, LC–MS/MS of Leu(d3) in oocytes. Conditions: pH 5.0, room temperature, labelled compound, hydrochloride salt, Extended Data Fig. 4a legend gives 4.4 mM for the displayed fit. Format: cell-based, Mus musculus.

Substrate in data set [9]: C[C@H](NC(=O)[C@@H](N)Cc1c[nH]cn1)C(=O)O
Nature of the data set: proteoliposome uptake, pyranine fluorescence. In kind it is biochemical, Mus musculus. To be noted: pH 6.8, 22 °C, valinomycin-driven membrane potential approx. −100 mV.

Substrate in data set [10]: N[C@@H](Cc1c[nH]cn1)C(=O)N[C@@H](CO)C(=O)O
As to the kind of experiment: proteoliposome uptake, pyranine fluorescence. In kind it is biochemical, Mus musculus. To be noted: pH 6.8, 22 °C, valinomycin-driven membrane potential approx. −100 mV.

Data set [11] addresses T5, MFSD1 as it stands in the GLMP–MFSD1 fusion construct (mouse, UniProt Q9DC37 1-464).
T5 construct: mouse MFSD1, UniProt Q9DC37; C-terminal part of the fusion m3; written apart for the pair row of the structure; also called MFSD1out; source: Expi293F, transiently transfected, purified as part of GLMP–MFSD1-strep; not shown: Twin-Strep, C-terminal, kept
T5 sequence: T1 sequence (Q9DC37 1-464 L11A/L12A) with A11L, A12L
Nature of the data set: cryo-EM structure; purified GLMP–MFSD1 fusion in 20 mM HEPES pH 7.5, 150 mM NaCl, 0.015% DDM, 0.0015% CHS; apo (4.2 Å) and dialysed against 20 mM His–Ala (4.1 Å); outward-open conformation. Conditions: both partners purified.

A word on the inhibition: it is the drop in the measured response relative to a control, in per cent. Take `C[C@H](N)C(=O)N[C@@H](C)C(=O)O` [Ala–Ala] (H-Ala-Ala-OH): in data set [1] (read-out: % inhibition at 20 mM), the inhibition at 20000 µM turned out to be 66 ± 3%.
Consider `N[C@@H](CCC(=O)O)C(=O)N[C@@H](CO)C(=O)O` [Glu–Ser] (H-Glu-Ser-OH), for which, in data set [1] (read-out: % inhibition at 10 mM), the inhibition at 10000 µM worked out at 26 ± 3%.
With `N[C@@H](Cc1c[nH]cn1)C(=O)N[C@@H](CO)C(=O)O` [His-Ser] (H-His-Ser-OH), the “uptake rate vs MFSD1WT” value in data set [2] is ~ 50 % reduction.
By Kd is commonly meant the free concentration of one partner at which half of the binding sites on the other are occupied at equilibrium, for simple one-to-one binding. Turning to `C[C@H](NC(=O)[C@@H](N)Cc1c[nH]cn1)C(=O)O` [His–Ala] (H-His-Ala-OH), the “cryo-EM, 4.1 Å map with extra density” value in data set [3] is on record as “revealed an additional density for GLMP–MFSD1His–Ala”. Moreover, in [2], the “uptake rate vs MFSD1WT” value is on record as ~ 50 % reduction. The Kd in [4] stood at 6.7 ± 0.55 mM.
As a reminder, the ΔTm is the shift of the melting midpoint relative to a reference. Take `CC(C)C[C@H](NC(=O)[C@@H](N)CC(C)C)C(=O)O` [Leu–Leu]: the shift in melting temperature (ΔTm) in data set [5] came out at 14 °C.
His–Ala dipeptide: the KM of His–Ala uptake into MFSD1 proteoliposomes (pyranine assay) in data set [6] is 119 µM.

B1: MFSD1–GLMP oocytes (MFSD1L11A/L12A-EmGFP + GLMPY400A-mKate2) (Mus musculus; L11A/L12A) (protein)
chain: T1 sequence (Q9DC37 1-464 L11A/L12A)
notes: heterodimer at plasma membrane of Xenopus laevis oocytes; lysosomal sorting mutants; EmGFP and mKate2 fusions; with Glycosylated lysosomal membrane protein
As usually defined, the Km is the concentration of substrate that gives half-maximal velocity. For B1, the Km in data set [7] was 2600 ± 400 µM; in [8], 5600 ± 1600 µM.

B2: MFSD1 (MFSD1WT, mmMFSD1, MFSD1-strep) (Mus musculus) (protein)
chain: T1 sequence (Q9DC37 1-464 L11A/L12A) with A11L, A12L
notes: full length; N-terminal Twin-Strep-tag + HRV 3C site; Expi293F; purified in DDM/CHS; liposomes POPE:POPG:CHS for transport
For the molecule B2, the Km was found to be 119.1 ± 59.3 µM in data set [9] and 24.4 ± 13.5 µM in data set [10].

B3: GLMP as it stands in the GLMP–MFSD1 fusion construct (natural protein, mouse, UniProt Q9JHJ3 36-404, looked up)
chain: T1 sequence (Q9JHJ3 36-404 Y400A partner) with A365Y
modifications: N-glycans on Asn85, Asn94, Asn157, Asn228 and Asn331
notes: mouse GLMP, UniProt Q9JHJ3; N-terminal part of the fusion m3; written apart for the pair row of the structure; source: Expi293F, transiently transfected, purified as part of GLMP–MFSD1-strep
For B3, the binding result in data set [11] is “binds”.
